US9328122B2, “7-substituted Hanfangichin B derivative, and preparation method and use thereof” (HANGZHOU BENSHENG PHARMACEUTICAL CO., LTD., priority 2012, dated 2016)
≈ marks a conversion by molar mass, not a printed value.

Tests used:
[1] = tested on: K562/ADR (K562adr, drug-resistant chronic myeloid leukemia) cells; assay: MTT cell growth inhibition, leukemia cells; format: cell-based; details: Homo sapiens, K562/ADR, 72 h, MTT; for IC50: read-out: IC50; for IC90: read-out: IC90
In short: (§1)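 Growth inhibition is assessed by MTT after leukemia cells, plated at 6000 per well in RPMI-1640 containing 10% fetal bovine serum, are exposed for 72 hours to graded compound concentrations added the day after plating.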

[2] = tested on: NB4 (acute promyelocytic leukemia) cells; assay: MTT cell growth inhibition, leukemia cells; format: cell-based; details: Homo sapiens, NB4, 72 h, MTT; for IC50: read-out: IC50; for IC90: read-out: IC90
In short: as §1

[3] = tested on: Becap-37 (human breast cancer) cells; assay: MTT cell growth inhibition, solid tumor cells; format: cell-based; details: for IC50 / IC90: Homo sapiens, Becap-37, 72 h, MTT; for IC50: read-out: IC50; for IC90: read-out: IC90
In short: (§2)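 Exposure lasted 72 h, following 24 h growth of 6000 cells/well in DMEM high glucose containing 10% FBS at 37 °C in 5% CO2; endpoint was MTT-based viable cell concentration across tested compound concentrations.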

[4] = tested on: Hela (human cervical cancer) cells; assay: MTT cell growth inhibition, solid tumor cells; format: cell-based; details: Homo sapiens, Hela, 72 h, MTT; for IC50: read-out: IC50; for IC90: read-out: IC90
In short: as §2

[5] = tested on: U87-MG (malignant glioma) cells; assay: MTT cell growth inhibition, solid tumor cells; format: cell-based; details: Homo sapiens, U-87 MG, U87-MG, 72 h, MTT; for IC50: read-out: IC50; for IC90: read-out: IC90
In short: as §2

[6] = tested on: MGC-803 (human gastric cancer) cells; assay: MTT cell growth inhibition, solid tumor cells; format: cell-based; details: MGC-803, 72 h, MTT; for IC50: read-out: IC50; for IC90: read-out: IC90
In short: as §2

[7] = tested on: MG-63 (osteosarcoma) cells; assay: MTT cell growth inhibition, solid tumor cells; format: cell-based; details: Homo sapiens, MG-63, 72 h, MTT; for IC50: read-out: IC50; for IC90: read-out: IC90
In short: as §2

[8] = tested on: Hep G2 (human liver cancer) cells; assay: MTT cell growth inhibition, solid tumor cells; format: cell-based; details: for IC50 / IC90: Homo sapiens, HepG2, Hep G2, 72 h, MTT; for IC50: read-out: IC50; for IC90: read-out: IC90
In short: as §2

[9] = tested on: A549 (human lung cancer) cells; assay: MTT cell growth inhibition, solid tumor cells; format: cell-based; details: Homo sapiens, A549, 72 h, MTT; for IC50: read-out: IC50; for IC90: read-out: IC90
In short: as §2

[10] = tested on: Hep-2 (laryngeal carcinoma) cells; assay: MTT cell growth inhibition, solid tumor cells; format: cell-based; details: Homo sapiens, Hep-2, 72 h, MTT; for IC50: read-out: IC50; for IC90: read-out: IC90
In short: as §2

[11] = tested on: RKO (human colon adenocarcinoma) cells; assay: MTT cell growth inhibition, solid tumor cells; format: cell-based; details: Homo sapiens, RKO, 72 h, MTT; for IC50: read-out: IC50; for IC90: read-out: IC90
In short: as §2

tumor = assay: Antitumor activity compared with fangchinoline, overall statement; format: cell-based; details: tumor type not specified
[12] = tested on: SK-OV-3 (ovarian cancer) cells; assay: MTT cell growth inhibition, solid tumor cells; format: cell-based, human; details: Homo sapiens, SK-OV-3, 72 h, MTT; for IC50: read-out: IC50; for IC90: read-out: IC90
In short: as §2

[13] = tested on: PANC-1 (pancreatic cancer) cells; assay: MTT cell growth inhibition, solid tumor cells; format: cell-based, human; details: for IC50 / IC90: Homo sapiens, PANC-1, 72 h, MTT; for IC50: read-out: IC50; for IC90: read-out: IC90
In short: as §2

[14] = tested on: CNE (nasopharyngeal carcinoma) cells; assay: MTT cell growth inhibition, solid tumor cells; format: cell-based, human; details: for IC50 / IC90: Homo sapiens, CNE, 72 h, MTT; for IC50: read-out: IC50; for IC90: read-out: IC90
In short: as §2

[15] = tested on: CaEs-17 (esophageal cancer) cells; assay: MTT cell growth inhibition, solid tumor cells; format: cell-based, human; details: Homo sapiens, CaEs17, CaEs-17, 72 h, MTT; for IC50: read-out: IC50; for IC90: read-out: IC90
In short: as §2

[16] = tested on: PC-3 (prostate cancer) cells; assay: MTT cell growth inhibition, solid tumor cells; format: cell-based, human; details: Homo sapiens, PC-3, 72 h, MTT; for IC50: read-out: IC50; for IC90: read-out: IC90
In short: as §2

[17] = tested on: RPMI 8226 (multiple myeloma) cells; assay: MTT cell growth inhibition, multiple myeloma cells; format: cell-based, human; details: for IC50 / IC90: Homo sapiens, RPMI 8226, 72 h, MTT; for IC50: read-out: IC50; for IC90: read-out: IC90
In short: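 RPMI 8226 myeloma cells, 6000 per well in RPMI-1640 with 10% FBS, were dosed with fangchinoline derivatives at several concentrations the day after seeding. Incubation ran 72 h at 37° C in 5% CO2, then viable cells were measured by MTT.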

[18] = relative to fangchinoline, Table 2

Compound | IC50 [1] [µg/mL] | IC90 [1] [µg/mL] | IC50 [2] [µg/mL] | IC90 [2] [µg/mL] | IC50 [3] [µg/mL] | IC90 [3] [µg/mL] | IC50 [4] [µg/mL] | IC90 [4] [µg/mL] | IC50 [5] [µg/mL] | IC90 [5] [µg/mL] | IC50 [6] [µg/mL] | IC90 [6] [µg/mL] | IC50 [7] [µg/mL] | IC90 [7] [µg/mL] | IC50 [8] [µg/mL] | IC90 [8] [µg/mL] | IC50 [9] [µg/mL] | IC90 [9] [µg/mL] | IC50 [10] [µg/mL] | IC90 [10] [µg/mL] | also measured
COc1ccc2cc1Oc1ccc(cc1)C[C@H]1c3cc(c(OC)cc3CCN1C)Oc1c(OCC(O)CN3CCCC(C)C3)c(OC)cc3c1[C@H](C2)N(C)CC3 (some centres unmarked) [BS-FC-410] | 0.05 (≈ 0.0654 µM) | 0.63 (≈ 0.825 µM) | 0.28 (≈ 0.367 µM) | 0.91 (≈ 1.19 µM) | 0.73 (≈ 0.956 µM) | 2.48 (≈ 3.25 µM) | 1.33 (≈ 1.74 µM) | 2.41 (≈ 3.15 µM) | 0.67 (≈ 0.877 µM) | 1.19 (≈ 1.56 µM) | 0.49 (≈ 0.641 µM) | 3.21 (≈ 4.2 µM) | 1.1 (≈ 1.44 µM) | 1.7 (≈ 2.23 µM) | 0.66 (≈ 0.864 µM) | 1.51 (≈ 1.98 µM) | 1.71 (≈ 2.24 µM) | 6.8 (≈ 8.9 µM) | 2.25 (≈ 2.95 µM) | 8 (≈ 10.5 µM) | anti-Becap37 activity increase over fangchinoline [3, 18]: ~3 fold; anti-Hep G2 activity increase over fangchinoline [8, 18]: ~3 fold; IC50 [11]: 0.44 µg/mL (≈ 0.576 µM); IC90 [11]: 0.95 µg/mL (≈ 1.24 µM); antitumor activity compared with that of fangchinoline (tumor): significantly superior; IC50 [12]: 1.39 µg/mL (≈ 1.82 µM); IC90 [12]: 5.59 µg/mL (≈ 7.32 µM); IC50 [13]: 1.11 µg/mL (≈ 1.45 µM); IC90 [13]: 3.77 µg/mL (≈ 4.93 µM); anti-PANC-1 activity increase over fangchinoline [13, 18]: ~3 fold; IC50 [14]: 1.1 µg/mL (≈ 1.44 µM); IC90 [14]: 2.4 µg/mL (≈ 3.14 µM); IC50 [15]: 0.76 µg/mL (≈ 0.995 µM); IC90 [15]: 4.3 µg/mL (≈ 5.63 µM); IC50 [16]: 2.85 µg/mL (≈ 3.73 µM); IC90 [16]: 3.89 µg/mL (≈ 5.09 µM); IC50 [17]: < 0.125 µg/mL; IC90 [17]: 0.25 µg/mL (≈ 0.327 µM)
COc1ccc2cc1Oc1ccc(cc1)C[C@H]1c3cc(c(OC)cc3CCN1C)Oc1c(OCC(O)CN3CCSCC3)c(OC)cc3c1[C@H](C2)N(C)CC3 (some centres unmarked) [BS-FC-417] | 0.19 (≈ 0.247 µM) | 2.15 (≈ 2.8 µM) | 0.99 (≈ 1.29 µM) | 2.86 (≈ 3.72 µM) | 2.42 (≈ 3.15 µM) | 6.16 (≈ 8.02 µM) | 1.73 (≈ 2.25 µM) | 4.47 (≈ 5.82 µM) | 1.49 (≈ 1.94 µM) | 4.25 (≈ 5.53 µM) | 1.49 (≈ 1.94 µM) | 12.9 (≈ 16.8 µM) | 2 (≈ 2.6 µM) | 3.6 (≈ 4.69 µM) | 1.8 (≈ 2.34 µM) | 5.79 (≈ 7.54 µM) | 3.77 (≈ 4.91 µM) | 11.7 (≈ 15.2 µM) | 2.36 (≈ 3.07 µM) | 6.03 (≈ 7.85 µM) | IC50 [11]: 1.09 µg/mL (≈ 1.42 µM); IC90 [11]: 2.27 µg/mL (≈ 2.96 µM); antitumor activity compared with that of fangchinoline (tumor): significantly superior; IC50 [12]: 4.6 µg/mL (≈ 5.99 µM); IC90 [12]: 12.9 µg/mL (≈ 16.8 µM); IC50 [13]: 5.55 µg/mL (≈ 7.23 µM); IC90 [13]: 9 µg/mL (≈ 11.7 µM); IC50 [14]: 1.66 µg/mL (≈ 2.16 µM); IC90 [14]: 5.24 µg/mL (≈ 6.82 µM); IC50 [15]: 1.82 µg/mL (≈ 2.37 µM); IC90 [15]: 7.67 µg/mL (≈ 9.99 µM); IC50 [16]: 3.68 µg/mL (≈ 4.79 µM); IC90 [16]: 9.36 µg/mL (≈ 12.2 µM); IC50 [17]: 0.02 µg/mL (≈ 0.026 µM); IC90 [17]: 0.5 µg/mL (≈ 0.651 µM); anti-RPMI8226 activity increase over fangchinoline [17, 18]: 2 fold
COc1ccc2cc1Oc1ccc(cc1)C[C@H]1c3cc(c(OC)cc3CCN1C)Oc1c(OCC(O)CN3CCN(C#N)CC3)c(OC)cc3c1[C@H](C2)N(C)CC3 (some centres unmarked) [BS-FC-421] | 0.21 (≈ 0.271 µM) | 1.43 (≈ 1.84 µM) | 0.61 (≈ 0.786 µM) | 1.61 (≈ 2.07 µM) | 1.15 (≈ 1.48 µM) | 3.96 (≈ 5.1 µM) | 0.88 (≈ 1.13 µM) | 2.78 (≈ 3.58 µM) | 1.05 (≈ 1.35 µM) | 2.75 (≈ 3.54 µM) | 0.84 (≈ 1.08 µM) | 4.44 (≈ 5.72 µM) | 1.6 (≈ 2.06 µM) | 2.4 (≈ 3.09 µM) | 1.16 (≈ 1.49 µM) | 3.25 (≈ 4.19 µM) | 3.78 (≈ 4.87 µM) | 10.2 (≈ 13.1 µM) | 1.92 (≈ 2.47 µM) | 8.95 (≈ 11.5 µM) | IC50 [11]: 0.61 µg/mL (≈ 0.786 µM); IC90 [11]: 2.33 µg/mL (≈ 3 µM); antitumor activity compared with that of fangchinoline (tumor): significantly superior; IC50 [12]: 2.36 µg/mL (≈ 3.04 µM); IC90 [12]: 11 µg/mL (≈ 14.2 µM); IC50 [13]: 2.96 µg/mL (≈ 3.81 µM); IC90 [13]: 7.01 µg/mL (≈ 9.03 µM); IC50 [14]: 0.87 µg/mL (≈ 1.12 µM); IC90 [14]: 3.87 µg/mL (≈ 4.99 µM); anti-CNE activity increase over fangchinoline [14, 18]: ~3 fold; IC50 [15]: 0.88 µg/mL (≈ 1.13 µM); IC90 [15]: 9.43 µg/mL (≈ 12.2 µM); IC50 [16]: 2.72 µg/mL (≈ 3.51 µM); IC90 [16]: 6.07 µg/mL (≈ 7.82 µM); IC50 [17]: < 0.125 µg/mL; IC90 [17]: 0.25 µg/mL (≈ 0.322 µM)
